Reference: article PMC6941823, “A dispensable paralog of succinate dehydrogenase subunit C mediates standing resistance towards a subclass of SDHI fungicides in Zymoseptoria tritici” (PLoS Pathogens, 2019)

What was measured:
[1] = biological target: SQR (SDHC / altC) of IPO323 pTet::SDHC3 transformant, repressed (Zymoseptoria tritici, UniProt A0A1X7RQW2+F9X9V6+F9XH52+O42772); assay: Succinate-quinone (SQR) SDHI sensitivity assay on purified mitochondria, IPO323 pTet::SDHC3 repressed; format: biochemical
How it was run: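 Succinate:ubiquinone/DCPIP reductase inhibition measured on purified mitochondria from Zymoseptoria tritici strains carrying either a single C-subunit gene (ZtSDHC1, ZtSDHC1_A84I or ZtSDHC3) or both ZtSDHC1 and ZtSDHC3; pTet::SDHC3 transformant tested under repressed and induced conditions.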

[2] = tested on: Zymoseptoria tritici on wheat variety Riband; assay: In planta fungicide dose response; format: in vivo; conditions: for In planta EC50: application one day before infection
Description: The influence of the ZtSDHC3-driven SHA-SDHI resistance for the control of Z. tritici during wheat infection was assessed with a small range of commercial SDHIs (Fig 4C and 4D). In planta SDHIs sensitivity assays were performed with the 06STD024 isolate and its ZtSDHC1 or ZtSDHC3 KO mutants. A control strain (705) devoid of the ZtSDHC3 gene but more aggressive than IPO323 on wheat variety Riband was also included for comparison (Fig 4C and 4D).
Wheat (Triticum aestivum) variety Riband was grown in pots (d = 6.5cm), at a density of 4 plants per pot and treated with the growth regulator CCC (Chlorcholinchlorid; Chlormequat; 5 ml / pot, 0.4% solution) 4 days after sowing. Wheat plantlets were maintained in a climatic room at 18°C, 60% humidity and under a 12h light regime (high intensity). Fungicide applications were performed on 14 days old plantlets for which leaf 2 is the fully expanded target leaf. Fungicide treatments were performed using a custom-made track sprayer adjusted at 200L.ha^-1 (Nozzle: Lechler, orange LU90-01). […] Z. tritici infections were performed using a Devilbis airbrush (spray of about 150ml.m^-2) one day after fungicide application and using an inoculum grown on V8-agar adjusted to 1.8.10^6 spores.ml^-1 in 0.05% Tween20 in MQ water. Inoculated plants were initially incubated for 72h under reduced light conditions and high humidity using towel-covered Plexiglas hoods in a climatic chamber set to 21°C/19°C day/night alternations, 80% humidity and a 14h light regime. The Plexiglas hoods were then removed until evaluation. Plants were fertilized once per week and disease evaluation performed based on disease coverage on the second leaf approximately 16–19 days after infection, once untreated plants reached 75–90% disease coverage. Each fungicide was tested at several rates to produce dose responses. There were 3 pots (4 plants each) per fungicide rate and isolate, the whole experiment was repeated 4 times. In planta EC50 were calculated using the software GraphPad Prism v6.08.

Chain of SQR (SDHC / altC) of IPO323 pTet::SDHC3 transformant, repressed (F9XH52 44-187): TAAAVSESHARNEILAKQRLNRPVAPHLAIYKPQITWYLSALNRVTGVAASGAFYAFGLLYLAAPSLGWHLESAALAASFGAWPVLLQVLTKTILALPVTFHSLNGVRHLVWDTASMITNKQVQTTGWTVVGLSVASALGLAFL
Chain of SQR (SDHC / altC) of IPO323 pTet::SDHC3 transformant, repressed (O42772 20-297): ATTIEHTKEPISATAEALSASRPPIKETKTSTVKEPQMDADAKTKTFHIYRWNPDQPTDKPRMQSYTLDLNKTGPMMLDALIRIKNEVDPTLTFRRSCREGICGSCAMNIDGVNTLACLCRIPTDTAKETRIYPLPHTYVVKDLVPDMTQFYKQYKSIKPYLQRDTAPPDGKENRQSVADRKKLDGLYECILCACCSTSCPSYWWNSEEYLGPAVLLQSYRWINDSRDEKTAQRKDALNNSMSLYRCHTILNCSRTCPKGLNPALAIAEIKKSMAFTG
Chain of SQR (SDHC / altC) of IPO323 pTet::SDHC3 transformant, repressed (F9X9V6 1-193): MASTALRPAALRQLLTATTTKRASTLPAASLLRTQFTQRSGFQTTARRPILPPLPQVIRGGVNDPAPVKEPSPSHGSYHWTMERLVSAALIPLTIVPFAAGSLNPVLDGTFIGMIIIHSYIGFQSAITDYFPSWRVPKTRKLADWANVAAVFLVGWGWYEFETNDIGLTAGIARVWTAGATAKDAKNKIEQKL
Chain of SQR (SDHC / altC) of IPO323 pTet::SDHC3 transformant, repressed (A0A1X7RQW2 36-181): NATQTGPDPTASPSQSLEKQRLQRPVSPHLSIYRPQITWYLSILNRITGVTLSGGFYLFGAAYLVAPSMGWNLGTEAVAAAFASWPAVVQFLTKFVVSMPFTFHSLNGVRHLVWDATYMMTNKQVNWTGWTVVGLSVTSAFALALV
Chain of SQR (SDHC / altC) of IPO323 pTet::SDHC3 transformant, repressed (F9WWR1 41-643 partner): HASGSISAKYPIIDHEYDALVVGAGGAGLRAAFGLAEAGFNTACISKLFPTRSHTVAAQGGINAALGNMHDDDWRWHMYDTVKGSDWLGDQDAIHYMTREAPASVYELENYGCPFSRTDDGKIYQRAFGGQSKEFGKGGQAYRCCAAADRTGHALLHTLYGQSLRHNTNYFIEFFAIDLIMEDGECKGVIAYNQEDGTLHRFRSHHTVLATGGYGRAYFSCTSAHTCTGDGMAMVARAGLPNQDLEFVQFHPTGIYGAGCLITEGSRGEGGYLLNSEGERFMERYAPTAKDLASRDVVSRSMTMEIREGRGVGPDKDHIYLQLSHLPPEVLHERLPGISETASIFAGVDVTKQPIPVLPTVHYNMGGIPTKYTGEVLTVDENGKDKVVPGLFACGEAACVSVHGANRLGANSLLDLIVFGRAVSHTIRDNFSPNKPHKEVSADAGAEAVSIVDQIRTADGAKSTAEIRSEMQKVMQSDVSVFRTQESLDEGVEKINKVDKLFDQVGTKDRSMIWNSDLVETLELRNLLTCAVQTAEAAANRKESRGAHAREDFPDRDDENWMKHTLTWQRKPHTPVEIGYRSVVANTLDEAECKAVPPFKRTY

For `CON(C(=O)c1cn(C)nc1C(F)F)[C@@H](C)Cc1c(Cl)cc(Cl)cc1Cl` [Pydiflumetofen], which “RF (resistance factor), pTet Repressed (SDHC / altC)” value ([1]; IC50 ratio compared to IPO323 values) is on record?
The value was 1.7.

What about the IC50 ([1]; IPO323 pTet::SDHC3 transformant grown in presence of 30 mg.L^-1 doxycycline, mean of three ± SD) of the same compound?
The IC50 was 0.5 ± 0.1 nM.

And the “In planta EC50” value ([2]; 06STD024 ZtSDHC1 KO on wheat Riband)?
The value was 2.85 g.ha^-1.

What about the “In planta EC50” value ([2]; 06STD024 ZtSDHC3 KO mutant on wheat Riband) of the same compound?
The value was 0.053 g.ha^-1.

What about the “In planta EC50” value ([2]; WT isolate 06STD024 on wheat Riband) of the same compound?
Its value is 1.31 g.ha^-1.

What about the “In planta sensitivity difference compared to the ZtSDHC3 KO mutant” value ([2]; WT isolate 06STD024 vs 06STD024 ZtSDHC3 KO) of the same compound?
The value was 25 fold.
